# Source: patent publication US7384952B2, “Pyrazolopyrimidine compound and a process for preparing the same” (Mitsubishi Tanabe Pharma Corporation, priority 2003, dated 2008)
# Molecular target: SK channel
# Experiment: competitive apamin-binding inhibition assay (same manner as WO02/079189, Experiment 1)
# Settings: competitive binding assay against apamin, a selective SK channel blocker; read-out: apamin-binding inhibitory activity (IC50)
smiles,measurement,value
"CCOc1cccc(Cn2ncc3c(N4CCN(C(=O)c5ccc(N(CCN(C)C)C(=O)C6CC6)cc5)CC4)ncnc32)c1 [1-(3-ethoxybenzyl)-4-[4-[4-[N-(cyclopropyl-carbonyl)-N-[2-(dimethylamino)ethyl]amino]benzoyl]piperazin-1-yl]-1H-pyrazolo[3,4-d]pyrimidine]",IC50,50 nM
